# Assay results taken from US20150183738A1, “3-N-BUTYL-1-ISOINDOLINONE AND USE THEREOF FOR PREVENTING OR TREATING CEREBRAL INFARCTION” (SUN YAT-SEN UNIVERSITY, priority 2012, published 2015).
# “Also recorded” adds a separate entry of the source.
# Legend:
# [1] = test system: middle cerebral artery occlusion (MCAO) model in rats; assay: Neurobehavioral assessment (Zea Longa) in MCAO models of rats; format: in vivo, Male SD rats; conditions: score after 24 hrs of reperfusion; for alleviation of the neurobehavior compared with the blank control group (ANOVA): 30 mg/kg i.p.
# Protocol: Male SD rats having a weight of between 250 and 270 g are selected. The Male SD rats are cultivated at a room temperature of 25° C. and are forbidden from feeding food except for water 12 hrs before the operation. The MCAO models are constructed in accordance with longa method or the like. 10% chloral hydrate is used to anesthetize the rats by intraperitoneal injection with a dose of 350 mg/kg. The rat is then upwardly fixed on a rat plate in a supine position and illuminated by an incandescent lamp for maintaining a body temperature thereof at 37±0.5° C. Rat hairs at the middle position of the neck are sheared, and the skin at such position is incised after disinfection. The common carotid artery (CCA), external carotid artery (ECA), and internal carotid artery (ICA) of the right side are carefully separated. The ECA is cut, and a cut end is straightened and aligned with the ICA, and a thread is then inserted therefrom. The thread is inserted for a depth of approximately 19.0±0.5 mm. After 2 hrs, a part of the thread is pulled out to realize reperfusion. The rat after suture ligation is then put back to the rat cage. After 24 hrs of reperfusion, brain slices are prepared for staining.
# The rats are divided into three groups with 10 in each group: 1) a blank control group, i. e., an vegetable oil, 3 mL/kg; 2) 3-n-butyl-1-isoindolinone group, 30 mg/kg; 3) a positive control group, i. e., 3-n-butylphthalide, 30 mg/kg. All the three groups are administered with drugs via intraperitoneal injection 15 min after modeling.
# According to Zea Longa assessment, ethology observation is conducted after 2 hrs of modeling and 24 hrs of reperfusion and before killing the rats. The tail of the rat is seized to lift the rat about 1 foot off the ground to observe the condition of the left forelimb. […]
# After 24 hrs of reperfusion of the MCAO models of the rats, the neurobehavioral assessment is conducted on the rats again, and the results are recorded.
# [2] = test system: middle cerebral artery occlusion (MCAO) model in rats; assay: Influence on cerebral infarct area/volume in MCAO models of rats (TTC staining, image J); format: in vivo, Male SD rats; conditions: for average infarct area: 30 mg/kg intraperitoneal injection 15 min after ischemia, 2 hrs of cerebral infarction and 24 hrs of reperfusion, TTC staining
# Protocol: The middle cerebral artery occlusion (MCAO) model in rats is constructed to observe the anti-cerebral ischemia of 3-n-butyl-1-isoindolinone. The MCAO model is divided into three groups: 1) a negative control group, i. e., an vegetable oil, 3 mL/kg; 2) 3-n-butyl-1-isoindolinone group, 30 mg/kg; 3) a positive control group, i. e., 3-n-butylphthalide, 30 mg/kg. All the three groups are administered via intraperitoneal injection. Male SD rats having a weight of 250 g are selected and administered 15 min after the ischemia. After 2 hrs of cerebral infarction and 24 hrs of reperfusion, brain slices are prepared and conducted with TTC staining. Software image J is used to process staining results, calculate infarct areas, and compared with the results among different groups. It is known from the results that an average infarct area of the blank group is 24.430%, the average infarct area of the 3-n-butyl-1-isoindolinone group is 14.365%, and the average infarct area of the butylphthalide group is 14.402%. […] Male SD rats having a weight of between 250 and 270 g are selected. The Male SD rats are cultivated at a room temperature of 25° C. and are forbidden from feeding food except for water 12 hrs before the operation. The MCAO models are constructed in accordance with longa method or the like. 10% chloral hydrate is used to anesthetize the rats by intraperitoneal injection with a dose of 350 mg/kg. The rat is then upwardly fixed on a rat plate in a supine position and illuminated by an incandescent lamp for maintaining a body temperature thereof at 37±0.5° C. Rat hairs at the middle position of the neck are sheared, and the skin at such position is incised after disinfection. The common carotid artery (CCA), external carotid artery (ECA), and internal carotid artery (ICA) of the right side are carefully separated. The ECA is cut, and a cut end is straightened and aligned with the ICA, and a thread is then inserted therefrom. The thread is inserted for a depth of approximately 19.0±0.5 mm. After 2 hrs, a part of the thread is pulled out to realize reperfusion. The rat after suture ligation is then put back to the rat cage. After 24 hrs of reperfusion, brain slices are prepared for staining. The rats are divided into three groups with 10 in each group: 1) a blank control group, i. e., an vegetable oil, 3 mL/kg; 2) 3-n-butyl-1-isoindolinone group, 30 mg/kg; 3) a positive control group, i. e., 3-n-butylphthalide, 30 mg/kg. All the three groups are administered with drugs via intraperitoneal injection 15 min after modeling. After 24 hrs of reperfusion, brains are collected from killed rats and placed in Petri dishes. The brain tissues are quickly collected and placed in a refrigerator at a temperature of −20° C. for 20 min and taken out. The olfactory bulb, the cerebellum, and the lower brainstem are removed, and the remaining brain is then cut for five times with an interval of 2 mm, whereby six consecutive coronal brain slices are formed. 2% TTC dye solution is added to the Petri dishes to submerge the brain slice by the solution. The Petri dishes are placed at the temperature of 37° C. and incubated in the absence of light for between 25 and 30 min during which the brain slices are turned over once every 5 min. After TTC staining of the brain slices, a normal tissue thereof presents red and an ischemic region presents white. When the TTC staining is finished, the TTC dye solution is removed out of the Petri dishes by syringes. Formalin solution with an amount enabling to submerge the brain slices is then added, and the Petri dishes are placed in the dark. After 24 hrs, solidified brain slices are taken out and arranged in order in a blue background to take pictures. […]
# [3] = background statement; oily liquid; cited from earlier work
# [4] = 30 mg/kg i.p., 2 hrs MCAO, 24 hrs reperfusion
Compound,alleviation of the neurobehavior compared with the blank control group (ANOVA) [1],alleviation of the neurobehavior compared with the butylphthalide group (ANOVA) ([1]; both 30 mg/kg i.p.),"infarct volume reduced compared with the solvent control group [2, 4] [%]","reduced infarct area compared with the blank control group (one-factor ANOVA) [2, 4]",average infarct area [2] [%],"reduced infarct area, difference compared with butylphthalide (one-factor ANOVA) ([2]; both 30 mg/kg i.p., 2 hrs MCAO, 24 hrs reperfusion)",water solubility [3]
CCCCC1NC(=O)c2ccccc21 (stereo not shown) [3-n-butyl-1-isoindolinone],significant difference (P=0.003<0.01),no significant difference (P=0.384>0.05),41.199,significant difference (P<0.001),14.365,no significant statistical difference; also recorded: no statistical significance (P=0.989),
"CCCCC1OC(=O)c2ccccc21 (stereo not shown) [butylphthalide, 3-n-butylphthalide, reference compound]",significant difference,,,significant difference (P<0.01),14.402,,water insoluble
